Assays:
Glucagon receptor [1] = biological target: T1, Glucagon receptor (Homo sapiens, UniProt P47871); experiment: Binding affinity towards human glucagon receptor in absence of Mg2+ expressed as IC50
MAP kinase p38 [2] = biological target: T2, MAP kinase p38 (Homo sapiens, UniProt O15264+Q15759+Q16539+P53778); experiment: Binding affinity towards human Mitogen-activated protein kinase p38 expressed as IC50; type: protein assay
Glucagon receptor [3] = biological target: T1, Glucagon receptor; experiment: Affinity for human glucagon receptor in presence of Mg2+
MAP kinase p38 [4] = biological target: T2, MAP kinase p38; experiment: Inhibition of human Mitogen-activated protein kinase p38 at 40 uM; type: protein assay
Glucagon receptor [5] = biological target: T1, Glucagon receptor; experiment: Affinity for human glucagon receptor in absence of Mg2+; parameters: concentration or dose not given beside the values; conditions: concentration not given here
Glucagon receptor [6] = biological target: T1, Glucagon receptor; experiment: Binding affinity towards human glucagon receptor in absence of Mg2+; conditions: concentration not given here

T1 sequence (P47871 whole entry): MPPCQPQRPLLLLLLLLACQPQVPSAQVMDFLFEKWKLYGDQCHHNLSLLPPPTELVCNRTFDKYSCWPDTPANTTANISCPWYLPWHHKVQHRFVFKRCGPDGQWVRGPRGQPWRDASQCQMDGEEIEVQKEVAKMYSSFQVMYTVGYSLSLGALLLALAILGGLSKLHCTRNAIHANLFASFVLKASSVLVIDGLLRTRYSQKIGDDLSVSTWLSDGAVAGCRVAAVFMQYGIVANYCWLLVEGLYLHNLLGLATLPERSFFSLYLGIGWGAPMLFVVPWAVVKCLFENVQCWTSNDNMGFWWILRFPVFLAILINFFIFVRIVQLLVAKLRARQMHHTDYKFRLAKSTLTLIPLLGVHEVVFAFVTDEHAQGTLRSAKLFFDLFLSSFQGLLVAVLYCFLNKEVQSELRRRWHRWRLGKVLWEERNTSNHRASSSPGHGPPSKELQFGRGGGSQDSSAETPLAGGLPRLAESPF

Row | SMILES | IC50 (Glucagon receptor [1]) [µM] | IC50 (MAP kinase p38 [2]) [µM] | IC50 (Glucagon receptor [3]) [µM] | inhibition (MAP kinase p38 [4]) [%] | inhibition (Glucagon receptor [5]) [%] | inhibition (Glucagon receptor [6]) [%]
1 | CC(C)(C)c1ccc(-c2[nH]c(-c3ccc(Cl)cc3)nc2-c2ccncc2)cc1 | 0.13 | > 10 | 3.4 |  |  | 
2 | Clc1ccc(-c2nc(-c3ccc(I)cc3)c(-c3ccncc3)[nH]2)cc1 | 0.13 | 0.14 | 0.75 |  |  | 
3 | CCCCc1ccc(-c2[nH]c(-c3ccc(Cl)cc3)nc2-c2ccncc2)cc1 | 0.074 | > 10 | 0.15 |  |  | 
4 | CCCCOc1ccc(-c2[nH]c(-c3ccc(Cl)cc3)nc2-c2ccncc2)c(OCCCC)c1 | 0.0065 |  | 0.053 | 20 |  | 
5 | Fc1ccc(-c2[nH]c(-c3ccc(I)cc3)nc2-c2ccncc2)cc1 | 0.51 | 0.1 |  |  |  | 
6 | Clc1ccc(-c2nc(-c3ccc(Oc4ccccc4)cc3)c(-c3ccncc3)[nH]2)cc1 | 0.027 | 0.25 | 0.11 |  |  | 
7 | Fc1ccc(-c2[nH]c(-c3ccc(Cl)cc3)nc2-c2ccncc2)cc1 | 0.4 | 0.08 | 3.2 |  |  | 
8 | Oc1ccc(-c2[nH]c(-c3ccc(Br)cc3)nc2-c2ccccc2)cc1 |  | 0.1 |  |  | 24 | 
9 | Clc1ccc(-c2nc(-c3ccc(-c4ccccc4)cc3)c(-c3ccncc3)[nH]2)cc1 | 0.14 | 3.3 | 3.8 |  |  | 
10 | CSc1ccc(-c2nc(-c3ccc(F)cc3)c(-c3ccncc3)n2C)cc1 |  | 0.52 |  |  | 10 | 
11 | Fc1ccc(-c2[nH]c(-c3ccccc3Br)nc2-c2ccncc2)cc1 |  | 0.09 |  |  |  | < 20
12 | Clc1ccc(-c2nc(-c3cccc(Oc4ccccc4)c3)c(-c3ccncc3)[nH]2)cc1 | 0.013 | 0.22 | 0.15 |  |  | 
13 | Fc1ccc(-c2[nH]c(-c3cccc4ccccc34)nc2-c2ccncc2)cc1 | 1.5 | 0.34 |  |  |  | 
14 | CCCCOc1ccccc1-c1[nH]c(-c2ccc(Cl)cc2)nc1-c1ccncc1 | 0.0085 | > 1 | 0.11 |  |  | 
15 | Fc1ccc(-c2nc(-c3ccccc3)[nH]c2-c2ccncc2)cc1 | > 20 |  |  |  |  | 
16 | Cc1ccc(-c2nc(-c3ccc(F)cc3)c(-c3ccncc3)[nH]2)cc1 | 1.3 | 0.09 |  |  |  | 
17 | Brc1ccc(-c2nc(-c3ccccc3)c(-c3ccccc3)[nH]2)cc1 |  | 2.2 |  |  | 37 | 
18 | Fc1ccc(-c2[nH]c(CCc3ccccc3)nc2-c2ccncc2)cc1 |  | 0.13 |  |  | < 20 | 

Row | SMILES | IC50 (Glucagon receptor [1]) [µM] | IC50 (MAP kinase p38 [2]) [µM] | IC50 (Glucagon receptor [3]) [µM] | inhibition (MAP kinase p38 [4]) [%] | inhibition (Glucagon receptor [5]) [%] | inhibition (Glucagon receptor [6]) [%]
19 | Fc1ccc(-c2[nH]c(-c3ccc(Br)cc3)nc2-c2ccncc2)cc1 | 0.27 | 0.16 | 2.9 |  |  | 
20 | CC(C)c1ccc(-c2nc(-c3ccc(F)cc3)c(-c3ccncc3)[nH]2)cc1 | 0.7 | 0.28 |  |  |  | 
21 | CSc1ccc(-c2nc(-c3ccncc3)c(-c3ccc(F)cc3)n2C)cc1 |  | 0.86 |  |  | 38 | 
22 | Oc1ccc(-c2nc(-c3ccc(F)cc3)c(-c3ccncc3)[nH]2)cc1 |  |  |  |  |  | < 20
23 | Fc1ccc(-c2[nH]c(-c3cccc(Br)c3)nc2-c2ccncc2)cc1 | 1.4 | 0.15 |  |  |  | 
24 | Clc1ccc(-c2nc(-c3ccccc3Oc3ccccc3)c(-c3ccncc3)[nH]2)cc1 | 0.0065 | 0.15 | 0.29 |  |  | 
25 | Cc1cc(-c2[nH]c(-c3ccc(Cl)cc3)nc2-c2ccc(F)cc2)ccn1 |  | 0.05 |  |  | 38 | 
26 | N#Cc1ccc(-c2nc(-c3ccncc3)c(-c3ccc(F)cc3)[nH]2)cc1 | 8 | 0.21 |  |  |  | 
27 | Fc1ccc(-c2[nH]c(-c3ccc(-c4ccccc4)cc3)nc2-c2ccncc2)cc1 | 10 | 0.3 |  |  |  | 
28 | Fc1ccc(-c2[nH]c(-c3ccc(Br)s3)nc2-c2ccncc2)cc1 | 2.2 | 0.11 |  |  |  | 
29 | Cc1cnccc1-c1[nH]c(-c2ccc(Cl)cc2)nc1-c1ccc(F)cc1 | 1.1 | 0.02 |  |  |  | 
30 | Brc1ccc(-c2nc(-c3ccccc3)c(-c3ccncc3)[nH]2)cc1 | 0.782 | 0.04 |  |  |  | 
31 | CSc1ccc(-c2nc(-c3ccc(F)cc3)c(-c3ccncc3)o2)cc1 |  | 0.93 |  |  | -8 | 
32 | Clc1ccc(-c2nc(-c3ccc(Cl)cc3)c(-c3ccncc3)[nH]2)cc1 | 0.19 | 0.023 | 2.2 |  |  | 
33 | Fc1ccc(-c2[nH]c(-c3cc(Br)cs3)nc2-c2ccncc2)cc1 | 2.8 | 0.1 |  |  |  | 
34 | CCCOc1ccc(-c2[nH]c(-c3ccc(Cl)cc3)nc2-c2ccncc2)c(OCCC)c1 | 0.013 | 2.4 | 0.12 |  |  | 
35 | Clc1ccc(-c2nc(-c3cccc(-c4ccccc4)c3)c(-c3ccncc3)[nH]2)cc1 | 0.061 | 0.59 | > 3 |  |  | 
36 | Fc1ccc(-c2[nH]c(-c3ccc(Br)o3)nc2-c2ccncc2)cc1 |  | 0.19 |  |  | < 20 | 
